This note sets out measurements from ChEMBL document CHEMBL3804786, “Novel 1,3-thiazolidin-4-one derivatives as promising anti-Candida agents endowed with anti-oxidant and chelating properties” (Eur J Med Chem, 2016).

For one test, the system named is Pichia kudriavzevii. Nature of the test: Antifungal activity against Candida krusei clinical isolate after 24 hrs by broth microdilution method. The class given is functional.
The next test concerns Candida parapsilosis. Nature of the test: Antifungal activity against Candida parapsilosis clinical isolate after 24 hrs by broth microdilution method. The following applies: Lodderomyces parapsilosis. The class given is functional.
The subject of a further test is Nakaseomyces glabratus. Nature of the test: Antifungal activity against Candida glabrata clinical isolate after 24 hrs by broth microdilution method. It is filed as functional.
The test system of another test is [Candida] sake. Nature of the test: Antifungal activity against Candida sake clinical isolate after 24 hrs by broth microdilution method. The class given is functional. The following applies: Fermentozyma sake.
Test [1] relates to Streptococcus sp. (viridans group). Nature of the test: Antibacterial activity against Streptococcus alpha-hemolyticus clinical isolate after 18 to 22 hrs by broth microdilution method.
The next test relates to Enterococcus faecalis. Nature of the test: Antibacterial activity against Streptococcus faecalis clinical isolate after 18 to 22 hrs by broth microdilution method. It is filed as functional.
Another test has as its system Candida albicans. Nature of the test: Antifungal activity against Candida albicans clinical isolate after 24 hrs by broth microdilution method. It is filed as functional.
For another test, the system named is Enterobacter sp. Nature of the test: Antibacterial activity against Enterobacter spp. clinical isolate after 18 to 22 hrs by broth microdilution method. It is filed as functional.
A further test relates to Escherichia coli. Nature of the test: Antibacterial activity against Escherichia coli after clinical isolate 18 to 22 hrs by broth microdilution method. It is filed as functional.
For the next test, the system named is Proteus mirabilis. Nature of the test: Antibacterial activity against Proteus mirabilis clinical isolate after 18 to 22 hrs by broth microdilution method. The class given is functional.
The test system of a further test is Candida tropicalis. Nature of the test: Antifungal activity against Candida tropicalis clinical isolate after 24 hrs by broth microdilution method. It is filed as functional.
A further test concerns Staphylococcus aureus. Nature of the test: Antibacterial activity against Staphylococcus aureus clinical isolate after 18 to 22 hrs by broth microdilution method. It is filed as functional.
In another test the test system is Staphylococcus warneri. Nature of the test: Antibacterial activity against Staphylococcus warneri clinical isolate after 18 to 22 hrs by broth microdilution method. It is filed as functional.
For the next test, the system named is Klebsiella oxytoca. Nature of the test: Antibacterial activity against Klebsiella oxytoca clinical isolate after 18 to 22 hrs by broth microdilution method. It is filed as functional.

≈ marks a conversion by molar mass, not a printed value.

Turning to `CC(C)=N/N=C1\SCC(=O)N1Cc1ccccc1F`, the MIC against Pichia kudriavzevii is 8 mg/L (≈ 28.6 µM); in the test on Candida parapsilosis, 4 mg/L (≈ 14.3 µM); in the test on Nakaseomyces glabratus it was 2 mg/L (≈ 7.16 µM); in test [Candida] sake, 8 mg/L (≈ 28.6 µM); in [1], greater than 256 mg/L; with Enterococcus faecalis, greater than 256 mg/L. The MIC against Candida albicans is 8 mg/L (≈ 28.6 µM); in the test with Enterobacter sp., greater than 256 mg/L; against Escherichia coli, greater than 256 mg/L; against Proteus mirabilis, greater than 256 mg/L; in the test with Candida tropicalis it was 4 mg/L (≈ 14.3 µM); with Staphylococcus aureus, greater than 256 mg/L. Also, the MIC against Staphylococcus warneri and in the test with Klebsiella oxytoca was greater than 256 mg/L in each case.
In the case of `C/C(=N\N=C1/SCC(=O)N1Cc1ccccc1F)c1ccccn1`, the MIC is 4 mg/L (≈ 11.7 µM) against Pichia kudriavzevii; 4 mg/L (≈ 11.7 µM) against Candida parapsilosis; 8 mg/L (≈ 23.4 µM) in the test on Nakaseomyces glabratus; 8 mg/L (≈ 23.4 µM) in test [Candida] sake; greater than 256 mg/L in test [1]; greater than 256 mg/L in the test on Enterococcus faecalis. Moreover, the MIC in the test with Candida albicans was 4 mg/L (≈ 11.7 µM); in the test on Enterobacter sp., greater than 256 mg/L; against Escherichia coli, greater than 256 mg/L; in the test on Proteus mirabilis it was greater than 256 mg/L; against Candida tropicalis it was 4 mg/L (≈ 11.7 µM); in the test with Staphylococcus aureus, greater than 256 mg/L. Further, the MIC against Staphylococcus warneri and against Klebsiella oxytoca was greater than 256 mg/L throughout.
Take `O=C1CS/C(=N\N=C2CCCC2)N1Cc1cccc([N+](=O)[O-])c1`: the MIC is 8 mg/L (≈ 24.1 µM) against Pichia kudriavzevii; 4 mg/L (≈ 12 µM) with Candida parapsilosis; 16 mg/L (≈ 48.1 µM) with Nakaseomyces glabratus; 2 mg/L (≈ 6.02 µM) in test [Candida] sake; greater than 256 mg/L in test [1]; greater than 256 mg/L in the test with Enterococcus faecalis. Moreover, the MIC is 4 mg/L (≈ 12 µM) in the test with Candida albicans; greater than 256 mg/L against Enterobacter sp.; greater than 256 mg/L with Escherichia coli; greater than 256 mg/L against Proteus mirabilis; 4 mg/L (≈ 12 µM) against Candida tropicalis; greater than 256 mg/L against Staphylococcus aureus. Moreover, the MIC with Staphylococcus warneri and against Klebsiella oxytoca was greater than 256 mg/L in each case.
Take `C/C(=N\N=C1/SCC(=O)N1Cc1cccc([N+](=O)[O-])c1)c1ccccn1`: the MIC against Pichia kudriavzevii is 8 mg/L (≈ 21.7 µM); against Candida parapsilosis it was 8 mg/L (≈ 21.7 µM); against Nakaseomyces glabratus, 2 mg/L (≈ 5.41 µM); in test [Candida] sake, 4 mg/L (≈ 10.8 µM); in test [1], greater than 256 mg/L; with Enterococcus faecalis it was greater than 256 mg/L. The MIC in the test with Candida albicans is 4 mg/L (≈ 10.8 µM); against Enterobacter sp. it was greater than 256 mg/L; against Escherichia coli, greater than 256 mg/L; against Proteus mirabilis, greater than 256 mg/L; with Candida tropicalis, 8 mg/L (≈ 21.7 µM); in the test with Staphylococcus aureus it was greater than 256 mg/L. In addition, the MIC against Staphylococcus warneri and in the test on Klebsiella oxytoca was greater than 256 mg/L in each case.
As for `C/C(=N\N=C1/SCC(=O)N1Cc1cccc([N+](=O)[O-])c1)c1cccs1`, the MIC with Pichia kudriavzevii is 2 mg/L (≈ 5.34 µM); in the test with Candida parapsilosis, 8 mg/L (≈ 21.4 µM); in the test with Nakaseomyces glabratus, 2 mg/L (≈ 5.34 µM); in test [Candida] sake it was 4 mg/L (≈ 10.7 µM); in [1], greater than 256 mg/L; with Enterococcus faecalis, greater than 256 mg/L. The minimal inhibitory concentration (MIC) against Candida albicans was 4 mg/L (≈ 10.7 µM); in the test on Enterobacter sp., greater than 256 mg/L; against Escherichia coli it was greater than 256 mg/L; with Proteus mirabilis, greater than 256 mg/L; against Candida tropicalis it was 4 mg/L (≈ 10.7 µM); with Staphylococcus aureus, greater than 256 mg/L. Besides, the MIC against Staphylococcus warneri and with Klebsiella oxytoca was greater than 256 mg/L in each case.
For the compound `C/C(=N/N=C1\SCC(=O)N1Cc1ccccc1[N+](=O)[O-])c1ccccn1`, the MIC in the test on Pichia kudriavzevii was 4 mg/L (≈ 10.8 µM); against Candida parapsilosis, 16 mg/L (≈ 43.3 µM); against Nakaseomyces glabratus, 2 mg/L (≈ 5.41 µM); in test [Candida] sake it was 2 mg/L (≈ 5.41 µM); in [1] it was greater than 256 mg/L; against Enterococcus faecalis, greater than 256 mg/L. Moreover, the MIC against Candida albicans was 2 mg/L (≈ 5.41 µM); in the test with Enterobacter sp. it was greater than 256 mg/L; with Escherichia coli it was greater than 256 mg/L; in the test with Proteus mirabilis it was greater than 256 mg/L; with Candida tropicalis it was 4 mg/L (≈ 10.8 µM); against Staphylococcus aureus it was greater than 256 mg/L. Moreover, the MIC in the test with Staphylococcus warneri and against Klebsiella oxytoca was greater than 256 mg/L throughout.
